# Test results reported in patent US11266613B2 (priority 2017, dated 2022).
# Values joined by “and” are separate entries in the source; they are usually repeats but may differ in a detail not shown here. Equal entries are not always repeated. Where two headings read alike, the source gives them in different places.
# Tests used:
# [1] = test system: Rat isolated heart; experiment: Rat isolated heart, 30 min regional ischaemia (coronary ligation), VF incidence (Example 2); conditions: for reduction of incidence of ischaemia-induced VF: 30 min regional ischaemia, test solutions 15 μM and 150 μM
# Description: Model Choice: • Rat isolated heart, 30 min regional ischaemia (coronary ligation) • High baseline susceptibility to VF • Scope for detection of VF suppression by drugs
# [2] = test system: anaesthetised rats, myocardial infarction
# [3] = test system: Langendorff preparation; conditions: cited from earlier work; for inhibition of VF: administered before or after ischaemia onset, Langendorff preparation
# [4] = test system: pentobarbitone anaesthetized mice; conditions: bolus dose of 100 mg/kg i.v.
# Description: An initial toxicity study was undertaken in pentobarbitone anaesthetized mice.
# [5] = test system: arrhythmias which occur early after occlusion of the left coronary artery
# Description: Groups of female rats, each in the weight range of 200-300 g, were studied.
# The protocol used followed that used in many previous studies seeking dose-related data for novel compounds and reference drugs.
# Five minutes after the start of drug delivery the left main coronary artery was occluded (J Mol Cell Cardiol 19: 399-419 1987). This caused a region of ischaemia (verified by the occluded zone, OZ) which was maintained for the duration of the observation period (30 minutes) during which severe arrhythmias caused by the resultant cardiac ischaemia occur (J Mol Cell Cardiol 19: 399-419 1987).
# This study was not randomized but was progressed from a low dose to a high dose.
# Outcomes were evaluated versus a historical data base of 140 rats treated identically (0.8% saline infusion and coronary artery ligation).
# Procedures: • From the ECG, the PR and QT and heart rate were determined. • From a femoral artery catheter, blood pressure (BP) was monitored. • Arrhythmic Score (AS) was determined by counting the number of ventricular premature beats (VPBs) and the occurrence of ventricular tachycardia (VT) and fibrillation (VF) (Cardiovasc Res 22: 656-665, 1988). • Occlusion Zone (OZ) was measured by weight (g) using a dye exclusion method (J Mol Cell Cardiol 19: 399-419 1987).
# [6] = test system: pentobarbitone anaesthetized rats; conditions: 60 mg/kg i.v. over 20 minutes
# Description: A study was carried out to assess tolerability in pentobarbitone anaesthetized rats.
# [7] = test system: anaesthetised rats, induced infarction, VF; conditions: for VF-free survival after 30 minutes: 2 mg/kg bolus and 0.5 mg/kg/min infusion, IV before induced infarction, control 0%
# Description: Method: • Randomized, blinded and fully powered trial • Groups of n=6 anaesthetised rats • Test solutions delivered by IV to rat tail vein before induced infarction
# [8] = test system: patients at high risk of VT or VF following myocardial infarction; conditions: cited from earlier work
# [9] = LNO 3 mg/kg total dose i.v. over 20 min, group mean
# [10] = LNO 10 mg/kg total dose i.v. over 20 min, group mean
# [11] = LNO 10 mg/kg total dose i.v. over 20 min, individual rat
# [12] = LNO 30 mg/kg total dose i.v. over 20 min, group mean
# [13] = LNO 100 mg/kg total dose i.v. over 20 min, group mean
compound,measurement,setting,value
"CC[N+]([O-])(CC)CC(=O)Nc1c(C)cccc1C [LNO, lidocaine N-oxide]",effect on PR,[1],did not show any effect
same,effect on heart rate,[1],only a small effect
same,reduction of incidence of ischaemia-induced VF,[1]; isolated rat heart,equally as effective as lidocaine
same,survival rate,"[2]; anaesthetised rats, LNO directly to the bloodstream prior to myocardial infarction",100%
same,"signs of excessive reduction in contractile function, decreased heart rate, complete heart block or asystole","[2]; rat, in vivo",no signs
same,inhibition of VF,[3],equi-effective
same,dose-limiting bradycardia or PR interval elongation,[3],didn't induce
same,tolerability of the dose,[4],well tolerated
same,therapeutic window from the threshold effective dose,[5]; 3 mg/kg to 30 mg/kg i.v.,at least ten-fold
same,AS (arrhythmia score),[5]; [9],4.5
same,VF (ventricular fibrillation),[5]; [9],0.25 number of episodes
same,VT (ventricular tachycardia),[5]; [9],7.75 number of episodes
same,AS (arrhythmia score),"[5]; LNO 3 mg/kg total dose i.v. over 20 min, individual rat",7 and 3 (2×) and 5
same,AS (arrhythmia score),[5]; [10],1.67
same,VT (ventricular tachycardia),[5]; [10],3 number of episodes
same,AS (arrhythmia score),[5]; [11],1 (2×) and 3
same,VF (ventricular fibrillation),[5]; [11],0 number of episodes
same,AS (arrhythmia score),[5]; [12],2
same,VF (ventricular fibrillation),[5]; [12],2 number of episodes
same,VT (ventricular tachycardia),[5]; [12],22 number of episodes
same,AS (arrhythmia score),[5]; [13],2.67
same,VF (ventricular fibrillation),[5]; [13],0.33 number of episodes
same,VT (ventricular tachycardia),[5]; [13],3.67 number of episodes
same,Occl 10’ BP (blood pressure),"[5]; LNO 100 mg/kg total dose i.v. over 20 min, individual rat",Dead
same,arrhythmia score (AS) versus control,"[5]; each tested dose: 3, 10, 30 and 100 mg/kg, 30 min regional ischaemia, vs historical controls",significantly reduced
same,off-target actions,"[5]; highest dose of LNO, 100 mg/kg",one death due to convulsion
same,dose up to which no off-target effects are seen,"[5]; rat, in vivo, iv",30 mg/kg
same,lowest dose at which antiarrhythmic activity is seen (threshold effective dose),"[5]; regional ischaemia, i.v.",3 mg/kg
same,tolerability of the dose,[6],tolerated
same,VF-free survival after 30 minutes,[7],67%
same,effectiveness against VF,"[7]; anaesthetised rats, IV",effective
same,time post-infarction before a VF event,"[7]; anaesthetised rats, IV",longer time
same,bradyarrhythmias,"[7]; rat, in vivo, iv",did not
"CCN(CC)CC(=O)Nc1c(C)cccc1C [lidocaine, reference compound]",PR interval versus control,"[1]; 15 μM, during 30 min ischaemia",higher
same,reduction of incidence of ischaemia-induced VF,[1]; isolated rat heart,equally effective
same,effect on PR,"[1]; isolated rat heart, conclusion",did show an impact
same,inhibition of VF,[3],equi-effective
same,VF-free survival after 30 minutes,[7],67%
same,bradyarrhythmias,"[7]; anaesthetised rats, IV",led to bradyarrhythmias
same,effectiveness against VF,"[7]; anaesthetised rats, IV",effective
O=C(NCC1CCCCN1)c1cc(OCC(F)(F)F)ccc1OCC(F)(F)F (centres unmarked) [flecainide],increase in the risk of mortality,[8],three-fold
